molecular target: T1, recombinant CREBBP bromodomain (Homo sapiens, UniProt Q92793); assay: CBP TR-FRET displacement assay; format: binding; conditions: compound at 10 μM
T1 construct: recombinant CREBBP bromodomain obtained from BPS Bioscience, USA; purchased BPS Bioscience, USA
Experimental: The potency of compounds to inhibit CREBBP enzyme was tested in a TR-FRET displacement assay using recombinant CREBBP bromodomain obtained from BPS Bioscience, USA. The assay buffer was 50 mM HEPES (pH 7.5), 50 mM NaCl, 0.008% Brij 35, 0.01% BSA, 1 mM TCEP. 50 nM of CREBBP & 500 nM of Biotinylated ligand was incubated at room temperature for 30 minutes, the reaction was initiated by adding pre-incubated enzyme ligand mixture to the test compounds. After 60 min incubation, the reaction was stopped by the addition of stop mix containing 1 nM of LANCE Europium-anti-6xHis antibody (Perkin Elmer, USA) and 40 nM of Sure Light Allophycocyanin-Streptavidin (Perkin Elmer, USA). Fluorescence emission of the samples at 665 and 615 nm were measured at an excitation of 340 nm and their ratio was plotted against the compound concentrations to generate dose-response curve. The percent inhibition of the test compounds is calculated using the ratio of enzyme activity controls.
elected compounds of the present invention were screened in the above-mentioned assay procedures and IC50 values were determined by fitting the dose-response data to sigmoidal curve fitting equation using Graph pad prism software V7.

T1 sequence (Q92793 1085-1192 limits assumed): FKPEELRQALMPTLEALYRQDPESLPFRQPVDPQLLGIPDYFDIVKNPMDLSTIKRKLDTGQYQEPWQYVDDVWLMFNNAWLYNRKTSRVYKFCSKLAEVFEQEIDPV

| SMILES | inhibition at 10 µM [%] |
| --- | --- |
| COc1cc2c(cc1-c1cnn(C)c1)CCCN2c1cccc2[nH]c(=O)c(C)cc12 [Example 188] | 25 |
| Cc1cc2c(N3CCc4ccc(-c5cnn(C)c5)cc4C3)cccc2n(C)c1=O [Example 190] | 52 |
| CNC(=O)c1ccc(-c2cc3c(cc2C(F)F)N(c2cc(OC)cc4c2cc(C)c(=O)n4C)CCC3)cn1 [Example 192, 5-(7-(Difluoromethyl)-7′-methoxy-1′,3′-dimethyl-2′-oxo-1′,2′,3,4-tetrahydro-2H-[1,5′-biquinolin]-6-yl)-N-methylpicolinamide] | 47 |

same assay, conditions: dose-response, read-out: IC50 (group A, B, C)

| SMILES | IC50 [µM] |
| --- | --- |
| Cc1cc2c(N3CCN(C)c4cc(-c5cnn(C)c5)[n+]([O-])cc43)cc(N3CCOCC3)cc2n(C)c1=O [Example 160, 4-(1,3-Dimethyl-7-morpholino-2-oxo-1,2-dihydroquinolin-5-yl)-1-methyl-7-(1-methyl-1H-pyrazol-4-yl)-1,2,3,4-tetrahydropyrido[3,4-b]pyrazine 6-oxide] | > 0.01 |
| Cc1cc2c(N3CCCc4cc(-c5cnn(C)c5)ncc43)cc(N3C[C@H]4C[C@@H]3CO4)cc2n(C)c1=O [Example 168] | < 0.05 |
| CC(=O)N1CCN(c2cc3c(cc2C(F)F)N(c2cc(N4CCOCC4)cc4c2cc(C)c(=O)n4C)CCC3)CC1 [Example 174, 6-(4-Acetylpiperazin-1-yl)-7-(difluoromethyl)-1′,3′-dimethyl-7′-morpholino-3,4-dihydro-2H-[1,5′-biquinolin]-2′(1′H)-one] | 0.051 to 0.1 |
| Cc1cc2c(N3CCCc4cc(-c5cnn(C)c5)c(C(F)F)cc43)cc(N3CC[C@@H](O)C3)cc2n(C)c1=O [Example 177] | 0.051 to 0.1 |
| COc1cc(N2CCCc3ccc(C#N)cc32)c2cc(C)c(=O)n(C)c2c1 [Example 184] | > 0.01 |
| CNC(=O)c1ccc(-c2ccc3c(c2)CCCN3c2cc(OC)cc3c2cc(C)c(=O)n3C)cn1 [Example 186] | 0.051 to 0.1 |
| COc1cc(N2CCc3c(c(-c4cnn(C)c4)nn3C)C2)c2cc(C)c(=O)n(C)c2c1 [Example 191] | > 0.01 |
| CC(=O)NC1CCN(c2cc3c(cc(C)c(=O)n3C)c(N3CCCc4cc(-c5cnn(C)c5)c(C(F)F)cc43)n2)C1 (stereo not shown) [Example 216] | < 0.05 |
| Cc1cc2c(N3CCN(C)c4cc(-c5cnn(C)c5)ncc43)nc(N3C4CCC3COC4)cc2n(C)c1=O [Example 221] | > 0.01 |

The remaining lines, values ahead:

| IC50 [µM] | SMILES |
| --- | --- |
| 0.051 to 0.1 | Cc1cc2c(N3CCN(C)c4cc(-c5cnn(C)c5)ncc43)cc(O)cc2n(C)c1=O [Example 145, 7-Hydroxy-1,3-dimethyl-5-(1-methyl-7-(1-methyl-1H-pyrazol-4-yl)-2,3-dihydropyrido[3,4-b]pyrazin-4(1H)-yl)quinolin-2(1H)-one] |
| 0.051 to 0.1 | Cc1cc2c(N3CCN(C)c4cc(-c5cnn(C)c5)ncc43)cc(C#CCO)cc2n(C)c1=O [Example 155, 7-(3-Hydroxyprop-1-yn-1-yl)-1,3-dimethyl-5-(1-methyl-7-(1-methyl-1H-pyrazol-4-yl)-2,3-dihydropyrido[3,4-b]pyrazin-4(1H)-yl)quinolin-2(1H)-one] |
| < 0.05 | Cc1cc2c(N3CCN(C)c4cc(-c5cnn(C)c5)ncc43)cc(OC3CCOCC3)cc2n(C)c1=O [Example 158] |
| < 0.05 | Cc1cc2c(N3CCCc4cc(-c5cnn(C)c5)ncc43)cc(N3CCOCC3)cc2n(C)c1=O [Example 169] |
| < 0.05 | Cc1cc2c(N3CCSc4cc(-c5cnn(C)c5)ncc43)cc(N3CCOCC3)cc2n(C)c1=O [Example 171] |
| > 0.01 | COc1cc(N2CCCc3ccc(C(F)F)cc32)c2cc(C)c(=O)n(C)c2c1 [Example 175] |
| > 0.01 | COc1cc(N2CCCc3cc(N4CCN(C(C)=O)CC4)ccc32)c2cc(C)c(=O)n(C)c2c1 [Example 185] |
| > 0.01 | CNC(=O)C1CCN(c2ccc3c(c2)CCCN3c2cc(OC)cc3c2cc(C)c(=O)n3C)CC1 [Example 187] |
| > 0.01 | COc1cc(N2CCc3cccc(-c4cnn(C)c4)c3C2)c2cc(C)c(=O)n(C)c2c1 [Example 189] |
| < 0.05 | Cc1cc2c(N3CCCc4cc(-c5cnn(C)c5)c(C(F)F)cc43)nc(N3CC(O)C(O)C3)cc2n(C)c1=O (stereo not shown) [Example 213] |
